# Results reported in US4826975A, “Fused cycloaliphatic aminoalcohols” (Maggioni-Winthrop S.P.A., priority 1986, dated 1989).
# What was measured:
# toxic adrenaline doses = assay: animal or person; type: in vivo, mice; conditions: Mus musculus, po; 2 hrs before 14.5 mg/kg 1-adrenaline i.p., mortality after 24 hrs; read-out: DP50 (50% protective dose)
# gasping time in mice = assay: anti-hypoxic activity, gasping time after decapitation; type: in vivo
# Protocol: The anti-hypoxic activity was determined according to Yasuda et al., Arch. Int. Pharmacodyn. 233, 136, 1978.
# Groups of 10 male mice (21-23 g) were treated orally with vehicle (controls) and the invention compounds. After 45 or 90 minutes the animals were decapitated and the gasping time was determined. Table 6 gives the results obtained after administration of some of the invention compounds which display an activity higher than Suloctidil.
# [1] = oral acute toxicity in male mice; conditions: mouse, in vivo
# Protocol: The oral acute toxicity in male mice of the invention compound is very low. […]; and higher than 2,000 mg/kg for MG 38005, MG 28401, MG 28414 and MG 28427.
# platelet aggregation = assay: effect on collagen-stimulated platelet aggregation, ex vivo; type: in vivo; conditions: Rattus norvegicus, 0.15 mM/kg oral, 1 hr, collagen 2-4 mcg/ml, read-out: % inhibition, Aggregation rate
# Protocol: The effect on platelet aggregation was tested ex vivo according to the method of Minsker, (J. Pharmacol. Exp. Ther. 210, 37, 1979) slightly modified. Groups of 3 rats (280-350 g) were treated orally with vehicle (controls) and compounds (0.15 mM/kg). Blood was collected and pooled from rats of each group 1 hr after treatment and the platelet rich plasma (PRP) was separated by centrifugation.
# Platelet aggregation was stimulated with collagen (2-4-mcg/ml) added simultaneously to PRP of control and treated rats. The results were assessed photometrically. Each test was replicated 4 times in groups of 3 animals. Aggregation curves were evaluated in terms of two parameters namely maximum optical density variation (maximum aggregation) and aggregation rate.
# Normolipemic rats = assay: hypolipemic activity in normolipemic rats (serum lipids, liver weight); type: in vivo, rat
# Protocol: Total cholesterol (CHOL), triglycerides (TG), HDL cholesterol CHOL-HDL) were assayed in serum and the liver was weighed.
# DOCA rats = type: in vivo, rat; conditions: 15 mg/kg po
# Protocol: Changes in blood pressure (mm Hg) before (T=O) and after treatment (2, 4 and 6 hrs) were measured according to the method of tail artery plethysmography reported in "Spontaneously hypertensive rats (SHR), guidelines for breeding, care and use", SHR Conference, 1976, page 11.
# The heart rate was also […] (BP Recorder No. 8006 supplied by Basile, Comerio, Italy). The arterial pressure before the treatment was 210±10 mmHg in SHR and 200±10 in DOCA rats.
# SHR = assay: anti-hypertensive activity in spontaneously hypertensive (SH) rats, tail artery plethysmography; conditions: 15 mg/kg po
# [2] = 100 mg/kg p.o., pretreatment 90 min.
# [3] = 100 mg/kg p.o., pretreatment 45 min.
smiles,measurement,setting,value
"COc1cc2c(c(OC)c1OC)CC[C@H](N1CCC(n3c(=O)[nH]c4cc(Cl)ccc43)CC1)[C@H]2O (relative stereo) [MG 16456, trans-2-[4(2-Oxo-5-chloro-1-benzimidazolinyl)-1-piperidinyl]-5,6,7-trimethoxy-1-tetralol]",ED50,toxic adrenaline doses,1.85 mg/kg
same,"Gasping time, % diff. from control",gasping time in mice; [2],+36.3%
"CCCCCCCCN[C@H]1Cc2cc(OC)c(OC)cc2[C@@H]1O (relative stereo) [MG 28400, trans 5,6-Dimethoxy-2-(n-octylamino)-1-indanol]","Gasping time, % diff. from control",gasping time in mice; [3],+53.8%
same,LD50,[1],> 500 mg/kg
"COc1cc2c(cc1OC)[C@@H](O)[C@H](N1CCN(C(=O)C=Cc3ccccc3)CC1)C2 (relative stereo) [MG 28414, trans 2-[4-(1-Oxo-3-phenyl-2-propenyl)-1-piperazinyl]-5,6-dimethoxy-1-indanol]",inhibition at 0.15 mmol/kg,platelet aggregation,58%
same,LD50,[1],> 2000 mg/kg
"CCCCCCCCN[C@@H]1Cc2c(cc(OC)c(OC)c2OC)[C@H]1O (relative stereo) [MG 38006, trans 2-(n-Octylamino)-4,5,6-trimethoxy-1-indanol]","Gasping time, % diff. from control",gasping time in mice; [3],+33.2%
same,LD50,[1],> 1000 mg/kg
"COc1cc2c(c(OC)c1OC)CC[C@H](N1CCC(n3c(=O)[nH]c4ccccc43)CC1)[C@H]2O (relative stereo) [MG 38028, trans 2-[4-(2-Oxo-1-benzimidazolidinilyl)-1-piperidinyl]-5,6,7-trimethoxy-1-tetralol]",ED50,toxic adrenaline doses,0.73 mg/kg
"COc1cc2c(cc1OC)[C@@H](O)[C@@H](N1CCN(c3ccccc3OC)CC1)C2 (relative stereo) [MG 38100, cis-2-[4-(2-Methoxyphenyl)-1-piperazinyl]-5,6-dimethoxy-1-indanol]",ED50,toxic adrenaline doses,8.5 mg/kg
same,"Gasping time, % diff. from control",gasping time in mice; [3],+95.7%
same,LD50,[1],> 500 mg/kg
"COc1cc2c(c(OC)c1OC)C[C@H](N1CCC(NC(=O)c3ccccc3)CC1)[C@@H]2O (relative stereo) [MG 38107, cis-2-(4-Benzamido-1-piperidinyl)-4,5,6-trimethoxy-1-indanol]",ED50,toxic adrenaline doses,2.45 mg/kg
same,"CHOL, % difference from control",Normolipemic rats; 0.185 mM/kg po × 4 days,-35.7%
same,"CHOL-HDL, % difference from control",Normolipemic rats; 0.185 mM/kg po × 4 days,-8.5%
same,"Liver weight, % difference from control",Normolipemic rats; 0.185 mM/kg po × 4 days,+5.6%
same,"TG, % difference from control",Normolipemic rats; 0.185 mM/kg po × 4 days,-50.9%
same,"CHOL, % difference from control",Normolipemic rats; 0.370 mM/kg po × 4 days,-30.7%
same,"CHOL-HDL, % difference from control",Normolipemic rats; 0.370 mM/kg po × 4 days,-26.3%
same,"Liver weight, % difference from control",Normolipemic rats; 0.370 mM/kg po × 4 days,0%
same,"TG, % difference from control",Normolipemic rats; 0.370 mM/kg po × 4 days,-58.5%
same,hypolipemic effect / activity (in words),Normolipemic rats; oral,higher than with Clofibrate
same,effect on CHOL and TG (in words),"Normolipemic rats; oral, 4 days",marked decrease both of CHOL and TG
same,LD50,[1],> 1000 mg/kg
"COc1cc2c(cc1OC)[C@@H](O)[C@@H](N1CCC(NC(=O)c3ccccc3)CC1)C2 (relative stereo) [MG 38112, cis 2-(4-Benzamido-1-piperidinyl)-5,6-dimethoxy-1-indanol]",Max. changes in systolic pressure,DOCA rats,-19 mmHg
same,ED50,toxic adrenaline doses,4.4 mg/kg
same,"CHOL, % difference from control",Normolipemic rats; 0.185 mM/kg po × 4 days,-45.2%
same,"CHOL-HDL, % difference from control",Normolipemic rats; 0.185 mM/kg po × 4 days,-18.6%
same,"Liver weight, % difference from control",Normolipemic rats; 0.185 mM/kg po × 4 days,0%
same,"TG, % difference from control",Normolipemic rats; 0.185 mM/kg po × 4 days,-41.8%
same,"CHOL, % difference from control",Normolipemic rats; 0.370 mM/kg po × 4 days,-52.7%
same,"CHOL-HDL, % difference from control",Normolipemic rats; 0.370 mM/kg po × 4 days,-21.4%
same,"Liver weight, % difference from control",Normolipemic rats; 0.370 mM/kg po × 4 days,+3.9%
same,"TG, % difference from control",Normolipemic rats; 0.370 mM/kg po × 4 days,-58.9%
same,hypolipemic effect / activity (in words),Normolipemic rats; oral,higher than with Clofibrate
same,effect on CHOL and TG (in words),"Normolipemic rats; oral, 4 days",marked decrease both of CHOL and TG
same,LD50,[1],> 1000 mg/kg
same,Max. changes in systolic pressure,SHR,-35 mmHg
"COc1cc2c(c(OC)c1OC)C[C@@H](N1CCC(n3c(=O)[nH]c4cc(Cl)ccc43)CC1)[C@H]2O (relative stereo) [MG 38119, cis-2-[4-(2-Oxo-5-chloro-1-benzimidazolinyl)-1-piperidinyl]-4,5,6-trimethoxy-1-indanol]",ED50,toxic adrenaline doses,4.4 mg/kg
"COc1cc2c(cc1OC)[C@H](O)[C@H](N1CCC(n3c(=O)[nH]c4cc(Cl)ccc43)CC1)C2 (relative stereo) [MG 38121, cis 2-[4-(2-Oxo-5-chloro-1-benzimidazolinyl)-1-piperidinyl]-5,6-dimethoxy-1-indanol]",ED50,toxic adrenaline doses,2.75 mg/kg
"COc1cc2c(c(OC)c1OC)C[C@H](N1CCC(n3c(=O)[nH]c4cc(Cl)ccc43)CC1)[C@H]2O (relative stereo) [MG 38122, trans-2-[4-(2-Oxo-5-chloro-1-benzimidazolinyl)-1-piperidinyl]-4,5,6-trimethoxy-1-indanol]",Max. changes in systolic pressure,DOCA rats,-28 mmHg
same,Max. changes in systolic pressure,SHR,-41.9 mmHg
"COc1cc2c(cc1OC)[C@H](O)[C@@H](N1CCC(n3c(=O)[nH]c4cc(Cl)ccc43)CC1)C2 (relative stereo) [MG 38131, trans-2-[4-(2-Oxo-5-chloro-1-benzimidazolinyl)-1-piperidinyl]-5,6-dimethoxy-1-indanol]","CHOL, % difference from control",Normolipemic rats; 0.370 mM/kg po × 4 days,~ 0%
same,"CHOL-HDL, % difference from control",Normolipemic rats; 0.370 mM/kg po × 4 days,+57.2%
same,"Liver weight, % difference from control",Normolipemic rats; 0.370 mM/kg po × 4 days,+6.9%
same,"TG, % difference from control",Normolipemic rats; 0.370 mM/kg po × 4 days,-41.4%
"Fc1ccc(C(c2ccc(F)cc2)N2CCN(C/C=C/c3ccccc3)CC2)cc1 [Flunarizine, reference compound]","Gasping time, % diff. from control","gasping time in mice; 50 mg/kg p.o., pretreatment 90 min.",+68.7%
"COc1cc2c(c(OC)c1OC)CC(N1CCC(n3c(=O)[nH]c4ccccc43)CC1)C2=O (stereo not drawn) [MG 38005, 2-[4-(2-oxo-1-benzimidazolinyl)-1-piperidinyl]-4,5,6-trimethoxy-1-indanone]",Max. changes in systolic pressure,DOCA rats,-27 mmHg
same,LD50,[1],> 2000 mg/kg
same,Max. changes in systolic pressure,SHR,-42 mmHg
COc1cc2c(cc1OC)C(=O)C(N1CCC(NC(=O)c3ccccc3)CC1)C2 (stereo not drawn) [MG 38128],"CHOL, % difference from control",Normolipemic rats; 0.370 mM/kg po × 4 days,~ 0%
same,"CHOL-HDL, % difference from control",Normolipemic rats; 0.370 mM/kg po × 4 days,+46.8%
same,"Liver weight, % difference from control",Normolipemic rats; 0.370 mM/kg po × 4 days,+8.6%
same,"TG, % difference from control",Normolipemic rats; 0.370 mM/kg po × 4 days,-38.8%
same,effect on TG and CHOL-HDL (in words),"Normolipemic rats; oral, 4 days",decrease TG and increase CHOL-HDL
"Cc1ccc(N(CC2=NCCN2)c2cccc(O)c2)cc1 [Phentolamine, reference compound]",ED50,toxic adrenaline doses,8 mg/kg
"COc1cc2nc(N3CCN(C(=O)c4ccco4)CC3)nc(N)c2cc1OC [Prazosin, reference compound]",ED50,toxic adrenaline doses,0.7 mg/kg
"CC(C)(Sc1cc(C(C)(C)C)c(O)c(C(C)(C)C)c1)Sc1cc(C(C)(C)C)c(O)c(C(C)(C)C)c1 [Probucol, reference compound]","CHOL, % difference from control",Normolipemic rats; 0.205 mM/kg po × 8 days,-25.0%
same,"CHOL-HDL, % difference from control",Normolipemic rats; 0.205 mM/kg po × 8 days,-26%
same,"Liver weight, % difference from control",Normolipemic rats; 0.205 mM/kg po × 8 days,+4%
same,"TG, % difference from control",Normolipemic rats; 0.205 mM/kg po × 8 days,-28.0%
same,"CHOL, % difference from control",Normolipemic rats; 0.820 mM/kg po × 4 days,~ 0%
same,"CHOL-HDL, % difference from control",Normolipemic rats; 0.820 mM/kg po × 4 days,+18.5%
same,"Liver weight, % difference from control",Normolipemic rats; 0.820 mM/kg po × 4 days,~ 0%
same,"TG, % difference from control",Normolipemic rats; 0.820 mM/kg po × 4 days,~ 0%
same,hypolipemic effect / activity (in words),Normolipemic rats; oral,moderate and is noted only after prolonged treatment (8 days)
"CCCCCCCCNC(C)C(O)c1ccc(SC(C)C)cc1 (stereo not drawn) [Suloctidil, reference compound]",inhibition at 0.15 mmol/kg,platelet aggregation,57.5%
same,"Gasping time, % diff. from control",gasping time in mice; [3],+27.5%
same,"Gasping time, % diff. from control",gasping time in mice; [2],+11.7%
